# From ChEMBL document CHEMBL1201862, “PubChem BioAssay data set” (2004)
# The source made the active and inactive calls.
# Tests used:
# [1] = cytotoxicity toward DRD oncogenic fibroblasts, dose response, cell-based, non-viral oncogenic, luminescence (AID 1934); type: functional; conditions: Homo sapiens
# [2] = test system: BJ; test: cytotoxicity toward BJ-TERT fibroblasts, dose response, cell-based, RAS-independent, luminescence (AID 1933); type: functional; conditions: Homo sapiens
# [3] = test system: BJ; test: cytotoxicity toward BJ-TERT-LT-ST fibroblasts, dose response, cell-based, RAS-independent, luminescence (AID 1935); type: functional; conditions: Homo sapiens;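 further: BJ fibroblasts immortalized with TERT plus LT and ST oncogenes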
# [4] = test system: BJ; test: cells; type: functional, cell-based; conditions: Homo sapiens
# [5] = THP-1 cell cytotoxicity, dose response, cytotoxicity control for non-replicating M. tuberculosis project (AID 489025); type: functional
# [6] = HEp-2 cell cytotoxicity, dose response, cytotoxicity control for RSV inhibitor project, HTS (AID 2410); type: functional; conditions: human respiratory syncytial virus
# [7] = Vero E6 cell cytotoxicity, dose response, cytotoxicity control for non-replicating M. tuberculosis project, secondary assay (AID 492998); type: functional, VeroE6; conditions: Vero C1008
# [8] = cells; type: functional
# [9] = biological target: G-protein coupled receptor 55 (Homo sapiens, UniProt Q9Y2T6); test: GPR55 antagonists blocking LPI-driven arrestin recruitment, primary screen, imaging, U2OS, beta-arrestin-GFP, LPI agonist (AID 2013); type: functional;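 further: antagonist potency measured as reduced agonist-driven arrestin aggregation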
# Sequence of G-protein coupled receptor 55 (Q9Y2T6 whole entry): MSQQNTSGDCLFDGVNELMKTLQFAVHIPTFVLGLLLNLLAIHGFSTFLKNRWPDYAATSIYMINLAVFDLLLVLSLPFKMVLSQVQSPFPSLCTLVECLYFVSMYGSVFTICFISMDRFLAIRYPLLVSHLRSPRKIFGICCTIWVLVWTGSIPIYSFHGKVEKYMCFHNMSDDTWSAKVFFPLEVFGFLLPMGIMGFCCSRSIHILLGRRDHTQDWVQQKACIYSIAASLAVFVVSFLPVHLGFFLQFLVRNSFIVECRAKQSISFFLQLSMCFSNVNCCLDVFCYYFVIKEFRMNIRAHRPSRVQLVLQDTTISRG
# [10] = C. albicans growth with fluconazole, confirmation, fluorescence, retest (AID 2467); type: functional, cell-based
# [11] = biological target: ATP-dependent molecular chaperone HSP82 (Candida albicans (strain WO-1) (Yeast), UniProt C4YTQ8); test: loss of DOC-induced GRE-beta-galactosidase reporter signal, dose response, Hsp90 inhibitor project, S. cerevisiae, luminescence (AID 2400); type: functional, cell-based;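 further: beta-galactosidase luminescence from glucocorticoid response element reporter as proxy for Hsp90 function; inhibitor potency where signal loss means Hsp90 inhibition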
# Sequence of ATP-dependent molecular chaperone HSP82 (C4YTQ8 whole entry): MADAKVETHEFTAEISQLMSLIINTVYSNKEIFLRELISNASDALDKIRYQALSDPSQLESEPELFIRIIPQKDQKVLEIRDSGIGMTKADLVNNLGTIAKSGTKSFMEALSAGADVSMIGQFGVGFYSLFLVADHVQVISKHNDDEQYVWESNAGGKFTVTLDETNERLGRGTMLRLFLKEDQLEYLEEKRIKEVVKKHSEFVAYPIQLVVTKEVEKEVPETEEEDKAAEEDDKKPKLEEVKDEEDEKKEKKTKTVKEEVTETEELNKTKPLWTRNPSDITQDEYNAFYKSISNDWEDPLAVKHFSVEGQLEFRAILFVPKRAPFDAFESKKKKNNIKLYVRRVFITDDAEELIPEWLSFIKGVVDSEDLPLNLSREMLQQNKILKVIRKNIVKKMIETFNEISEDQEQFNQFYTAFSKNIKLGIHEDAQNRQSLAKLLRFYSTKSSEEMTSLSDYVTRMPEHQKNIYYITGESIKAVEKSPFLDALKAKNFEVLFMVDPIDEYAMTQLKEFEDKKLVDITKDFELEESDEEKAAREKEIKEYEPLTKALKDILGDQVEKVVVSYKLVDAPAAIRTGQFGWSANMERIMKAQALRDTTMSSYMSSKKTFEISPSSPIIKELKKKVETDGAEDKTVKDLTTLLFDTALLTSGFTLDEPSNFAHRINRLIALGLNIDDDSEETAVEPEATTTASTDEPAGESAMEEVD
# [12] = biological target: T1, Serine/threonine-protein phosphatase (Candida dubliniensis (strain CD36 / CBS 7987 / NCPF 3949 / NRRLY-17841) (Yeast), UniProt B9W6M3); test: calcineurin pathway inhibitors in yeast reporter, dose response, S. cerevisiae, CDRE-lacZ, luminescence, secondary (AID 2388); type: functional, cell-based;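 further: yeast reporter cells carrying a calcineurin-responsive lacZ construct stimulated with calcium chloride; luminescent beta-galactosidase reporter signal in whole cells rather than isolated phosphatase activity; potency for inhibition where a drop in reporter signal means calcineurin blockade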
# T1 sequence (B9W6M3 whole entry): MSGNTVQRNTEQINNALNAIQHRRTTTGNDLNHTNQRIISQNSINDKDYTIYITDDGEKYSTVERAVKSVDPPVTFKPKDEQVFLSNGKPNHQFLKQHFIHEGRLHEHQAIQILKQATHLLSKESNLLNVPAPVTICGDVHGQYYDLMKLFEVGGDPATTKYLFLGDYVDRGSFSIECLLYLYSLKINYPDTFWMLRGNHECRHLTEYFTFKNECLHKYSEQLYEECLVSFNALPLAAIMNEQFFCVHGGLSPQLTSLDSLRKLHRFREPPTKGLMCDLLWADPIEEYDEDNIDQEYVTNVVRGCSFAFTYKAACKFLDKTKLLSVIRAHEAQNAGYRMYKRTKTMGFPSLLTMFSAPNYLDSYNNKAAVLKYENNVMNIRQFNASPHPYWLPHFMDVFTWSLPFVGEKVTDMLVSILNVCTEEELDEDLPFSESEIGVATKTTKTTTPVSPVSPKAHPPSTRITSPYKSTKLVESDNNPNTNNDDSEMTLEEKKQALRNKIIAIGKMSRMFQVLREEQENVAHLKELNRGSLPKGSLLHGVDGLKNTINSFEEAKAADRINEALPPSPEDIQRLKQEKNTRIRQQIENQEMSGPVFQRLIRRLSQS
# [13] = NIH-3T3 fibroblast cytotoxicity, dose response, cytotoxicity control, cell-based, fluorescence, Alamar Blue, secondary assay (AID 2327); type: functional;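 further: NIH-3T3 mouse fibroblasts cultured with fluconazole at 8 µg/mL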
# [14] = biological target: T2, Fatty acid synthase (Homo sapiens, UniProt P49327); test: FAS thioesterase domain inhibitors, dose response, biochemical, endpoint fluorescence intensity, uHTS hits (AID 624327); type: functional;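 further: fluorescence from hydrolysis of an O-methyl fluorescein acyl ester substrate by the enzyme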
# T2 sequence (P49327 whole entry, the tested form may be a part): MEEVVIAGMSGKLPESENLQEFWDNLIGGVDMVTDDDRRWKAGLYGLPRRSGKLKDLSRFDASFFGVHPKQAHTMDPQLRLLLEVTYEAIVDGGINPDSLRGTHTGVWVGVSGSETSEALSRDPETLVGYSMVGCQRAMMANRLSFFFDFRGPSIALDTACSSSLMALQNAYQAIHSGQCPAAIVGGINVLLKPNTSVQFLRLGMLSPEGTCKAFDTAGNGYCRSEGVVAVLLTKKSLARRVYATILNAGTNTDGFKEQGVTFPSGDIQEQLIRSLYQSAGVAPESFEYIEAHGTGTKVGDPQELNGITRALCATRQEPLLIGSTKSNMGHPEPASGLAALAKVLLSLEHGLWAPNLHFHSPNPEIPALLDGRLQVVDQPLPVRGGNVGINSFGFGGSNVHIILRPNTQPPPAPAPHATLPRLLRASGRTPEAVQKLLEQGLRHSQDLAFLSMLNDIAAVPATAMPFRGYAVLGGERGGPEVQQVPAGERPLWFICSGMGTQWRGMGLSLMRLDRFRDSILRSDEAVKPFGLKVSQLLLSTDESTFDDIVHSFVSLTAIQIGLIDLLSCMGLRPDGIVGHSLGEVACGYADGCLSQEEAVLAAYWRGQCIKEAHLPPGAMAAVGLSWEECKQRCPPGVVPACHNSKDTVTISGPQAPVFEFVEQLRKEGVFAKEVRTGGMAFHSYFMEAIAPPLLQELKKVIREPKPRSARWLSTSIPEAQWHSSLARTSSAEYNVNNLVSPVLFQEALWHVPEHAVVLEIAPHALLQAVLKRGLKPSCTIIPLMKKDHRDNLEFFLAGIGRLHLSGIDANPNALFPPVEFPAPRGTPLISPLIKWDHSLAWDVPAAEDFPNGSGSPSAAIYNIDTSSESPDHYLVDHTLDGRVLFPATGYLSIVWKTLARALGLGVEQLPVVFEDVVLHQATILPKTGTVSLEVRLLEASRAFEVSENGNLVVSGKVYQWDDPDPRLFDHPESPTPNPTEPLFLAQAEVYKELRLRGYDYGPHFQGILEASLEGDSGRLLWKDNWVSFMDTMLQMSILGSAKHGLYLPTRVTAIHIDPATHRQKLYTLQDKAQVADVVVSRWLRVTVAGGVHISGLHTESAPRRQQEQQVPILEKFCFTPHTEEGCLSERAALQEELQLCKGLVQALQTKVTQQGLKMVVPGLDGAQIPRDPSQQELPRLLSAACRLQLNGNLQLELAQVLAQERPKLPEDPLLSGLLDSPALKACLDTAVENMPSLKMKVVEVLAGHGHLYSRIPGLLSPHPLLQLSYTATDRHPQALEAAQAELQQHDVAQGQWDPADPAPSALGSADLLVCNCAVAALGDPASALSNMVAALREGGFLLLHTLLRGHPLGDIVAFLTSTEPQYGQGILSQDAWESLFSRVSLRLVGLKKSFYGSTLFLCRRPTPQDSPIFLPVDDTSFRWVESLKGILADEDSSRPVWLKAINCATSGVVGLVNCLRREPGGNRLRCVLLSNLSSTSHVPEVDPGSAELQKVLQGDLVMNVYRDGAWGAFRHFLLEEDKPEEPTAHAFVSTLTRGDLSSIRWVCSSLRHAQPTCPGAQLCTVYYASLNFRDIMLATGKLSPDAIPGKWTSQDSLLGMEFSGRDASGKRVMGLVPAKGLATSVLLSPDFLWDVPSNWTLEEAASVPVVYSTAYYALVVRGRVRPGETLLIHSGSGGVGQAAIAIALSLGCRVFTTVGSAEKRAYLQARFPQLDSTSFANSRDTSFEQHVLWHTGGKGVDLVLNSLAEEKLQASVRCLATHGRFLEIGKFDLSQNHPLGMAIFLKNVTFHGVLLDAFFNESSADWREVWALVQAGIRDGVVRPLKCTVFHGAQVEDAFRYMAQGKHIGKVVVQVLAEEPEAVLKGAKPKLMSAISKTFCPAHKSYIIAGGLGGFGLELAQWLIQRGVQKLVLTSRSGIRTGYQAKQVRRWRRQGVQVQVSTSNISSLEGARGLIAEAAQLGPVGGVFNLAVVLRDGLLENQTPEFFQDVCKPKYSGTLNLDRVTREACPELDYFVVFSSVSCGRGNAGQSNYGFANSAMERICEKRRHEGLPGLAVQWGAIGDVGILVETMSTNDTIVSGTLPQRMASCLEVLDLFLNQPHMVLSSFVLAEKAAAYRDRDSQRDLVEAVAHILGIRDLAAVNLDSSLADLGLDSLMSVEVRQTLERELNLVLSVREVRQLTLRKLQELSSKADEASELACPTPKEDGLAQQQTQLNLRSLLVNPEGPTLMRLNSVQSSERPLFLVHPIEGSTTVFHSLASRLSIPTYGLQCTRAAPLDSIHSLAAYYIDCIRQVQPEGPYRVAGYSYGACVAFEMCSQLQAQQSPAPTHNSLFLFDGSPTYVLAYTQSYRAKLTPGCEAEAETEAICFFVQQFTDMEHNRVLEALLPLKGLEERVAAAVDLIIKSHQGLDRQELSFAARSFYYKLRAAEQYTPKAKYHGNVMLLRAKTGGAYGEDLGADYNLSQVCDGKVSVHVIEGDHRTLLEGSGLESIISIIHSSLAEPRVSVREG
# [15] = cytotoxicity in HEK-293T cells, dose response, cytotoxicity control for TCR NF-kB inhibitor project, luminescence, T-cell screen hits (AID 489026); type: functional, cell-based;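 further: cells exposed to compound about 14 hours before the viability readout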
# [16] = biological target: T2, Fatty acid synthase; test: FAS thioesterase domain inhibitors, dose response, biochemical, kinetic fluorescence intensity (AID 624326); type: functional;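 further: rate of fluorescence rise from hydrolysis of a fluorogenic O-methyl fluorescein ester substrate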
# [17] = biological target: Paired box protein Pax-8 (Homo sapiens, UniProt Q06710); test: inhibitors of PAX8-driven TPO luciferase reporter, dose response, RMG-I cells, cherry-pick (AID 687027); type: functional, cell-based;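 further: luciferase reporter driven by Pax8 target thyroperoxidase promoter measured by SteadyGlo luminescence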
# [18] = biological target: Genome polyprotein (dengue virus type 2, UniProt P29990); test: Dengue-2 NS5 methyltransferase inhibitors, primary screen, biochemical, confirmation dose response (AID 588689); type: functional
# Sequence of Genome polyprotein (P29990 2492-3391 limits assumed): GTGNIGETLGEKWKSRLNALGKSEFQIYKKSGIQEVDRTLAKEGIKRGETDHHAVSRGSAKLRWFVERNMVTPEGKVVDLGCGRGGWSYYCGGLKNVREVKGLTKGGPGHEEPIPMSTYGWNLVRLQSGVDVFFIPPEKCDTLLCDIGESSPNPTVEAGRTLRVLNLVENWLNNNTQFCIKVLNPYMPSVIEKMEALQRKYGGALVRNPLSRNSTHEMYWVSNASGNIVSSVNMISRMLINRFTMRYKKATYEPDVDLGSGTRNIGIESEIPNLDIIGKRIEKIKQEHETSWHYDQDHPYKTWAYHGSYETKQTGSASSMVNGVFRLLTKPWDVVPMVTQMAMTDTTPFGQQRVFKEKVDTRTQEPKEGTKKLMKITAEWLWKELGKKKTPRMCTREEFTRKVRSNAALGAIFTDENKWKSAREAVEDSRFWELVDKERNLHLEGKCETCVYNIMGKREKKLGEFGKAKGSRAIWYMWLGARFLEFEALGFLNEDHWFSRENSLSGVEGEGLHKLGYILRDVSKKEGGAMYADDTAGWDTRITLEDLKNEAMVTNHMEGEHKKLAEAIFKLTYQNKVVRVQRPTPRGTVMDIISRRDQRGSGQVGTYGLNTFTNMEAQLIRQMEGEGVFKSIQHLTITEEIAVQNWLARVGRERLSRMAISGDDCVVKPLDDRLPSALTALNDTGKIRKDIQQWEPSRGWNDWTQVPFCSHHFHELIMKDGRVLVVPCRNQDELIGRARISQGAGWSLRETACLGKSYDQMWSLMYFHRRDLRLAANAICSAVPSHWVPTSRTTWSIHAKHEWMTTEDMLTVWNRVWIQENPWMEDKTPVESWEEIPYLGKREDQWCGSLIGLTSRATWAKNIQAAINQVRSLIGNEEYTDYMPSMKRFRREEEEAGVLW
# [19] = biological target: T3, Carboxy-terminal domain RNA polymerase II polypeptide A small phosphatase 1 (Homo sapiens, UniProt Q9GZU7); test: inhibitors of CTDSP1, concentration-response testing, biochemical assay, absorbance-based, actives from ultra-high-throughput screening (AID 540297); type: functional
# T3 sequence (Q9GZU7 whole entry): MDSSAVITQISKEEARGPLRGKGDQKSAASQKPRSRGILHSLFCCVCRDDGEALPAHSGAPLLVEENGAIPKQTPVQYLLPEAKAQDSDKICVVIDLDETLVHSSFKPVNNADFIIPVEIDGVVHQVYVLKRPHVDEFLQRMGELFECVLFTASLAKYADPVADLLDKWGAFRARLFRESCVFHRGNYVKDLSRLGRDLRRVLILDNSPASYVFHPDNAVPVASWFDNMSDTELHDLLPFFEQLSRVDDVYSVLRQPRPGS
# [20] = biological target: Glyceraldehyde-3-phosphate dehydrogenase (Homo sapiens, UniProt P04406)
# Sequence of Glyceraldehyde-3-phosphate dehydrogenase (P04406 whole entry): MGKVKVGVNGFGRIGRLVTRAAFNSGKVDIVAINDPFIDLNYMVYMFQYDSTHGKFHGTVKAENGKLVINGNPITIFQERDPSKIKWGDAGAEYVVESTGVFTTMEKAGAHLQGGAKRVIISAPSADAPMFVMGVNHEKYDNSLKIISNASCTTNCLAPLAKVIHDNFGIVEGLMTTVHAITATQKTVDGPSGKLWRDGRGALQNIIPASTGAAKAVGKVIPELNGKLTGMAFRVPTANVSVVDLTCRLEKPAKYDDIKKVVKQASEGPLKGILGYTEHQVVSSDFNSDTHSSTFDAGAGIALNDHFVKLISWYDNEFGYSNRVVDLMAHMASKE
# [21] = biological target: T4, Leucine aminopeptidase (Plasmodium falciparum 3D7, UniProt Q8IL11); test: P. falciparum M17LAP inhibitors, primary screen, biochemical, fluorogenic H-Leu-NHMec substrate, 1536-well (AID 1619); type: functional
# T4 sequence (Q8IL11 whole entry): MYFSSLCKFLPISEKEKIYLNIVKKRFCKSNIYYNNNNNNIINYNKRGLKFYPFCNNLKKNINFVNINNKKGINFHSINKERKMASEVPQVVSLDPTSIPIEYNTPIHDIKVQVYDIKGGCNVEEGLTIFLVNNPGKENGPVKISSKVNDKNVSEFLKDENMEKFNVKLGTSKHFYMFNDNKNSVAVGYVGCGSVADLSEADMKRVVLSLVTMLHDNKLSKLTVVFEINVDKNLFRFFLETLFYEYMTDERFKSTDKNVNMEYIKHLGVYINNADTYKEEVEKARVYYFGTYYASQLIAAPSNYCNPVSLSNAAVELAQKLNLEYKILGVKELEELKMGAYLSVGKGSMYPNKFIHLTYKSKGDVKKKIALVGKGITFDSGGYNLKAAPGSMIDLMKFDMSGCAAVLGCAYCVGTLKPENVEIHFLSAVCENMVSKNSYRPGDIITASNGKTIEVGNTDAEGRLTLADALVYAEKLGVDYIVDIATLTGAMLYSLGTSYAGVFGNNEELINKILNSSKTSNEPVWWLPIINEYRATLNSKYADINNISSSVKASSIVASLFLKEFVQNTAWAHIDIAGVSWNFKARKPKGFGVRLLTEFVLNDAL
# [22] = biological target: T5, Replicative DNA helicase DnaB (Mycobacterium tuberculosis, UniProt P9WMR3); test: DnaB intein splicing inhibitors, dose response, biochemical, cell-free fluorescence (AID 449749); type: functional
# T5 sequence (P9WMR3 whole entry): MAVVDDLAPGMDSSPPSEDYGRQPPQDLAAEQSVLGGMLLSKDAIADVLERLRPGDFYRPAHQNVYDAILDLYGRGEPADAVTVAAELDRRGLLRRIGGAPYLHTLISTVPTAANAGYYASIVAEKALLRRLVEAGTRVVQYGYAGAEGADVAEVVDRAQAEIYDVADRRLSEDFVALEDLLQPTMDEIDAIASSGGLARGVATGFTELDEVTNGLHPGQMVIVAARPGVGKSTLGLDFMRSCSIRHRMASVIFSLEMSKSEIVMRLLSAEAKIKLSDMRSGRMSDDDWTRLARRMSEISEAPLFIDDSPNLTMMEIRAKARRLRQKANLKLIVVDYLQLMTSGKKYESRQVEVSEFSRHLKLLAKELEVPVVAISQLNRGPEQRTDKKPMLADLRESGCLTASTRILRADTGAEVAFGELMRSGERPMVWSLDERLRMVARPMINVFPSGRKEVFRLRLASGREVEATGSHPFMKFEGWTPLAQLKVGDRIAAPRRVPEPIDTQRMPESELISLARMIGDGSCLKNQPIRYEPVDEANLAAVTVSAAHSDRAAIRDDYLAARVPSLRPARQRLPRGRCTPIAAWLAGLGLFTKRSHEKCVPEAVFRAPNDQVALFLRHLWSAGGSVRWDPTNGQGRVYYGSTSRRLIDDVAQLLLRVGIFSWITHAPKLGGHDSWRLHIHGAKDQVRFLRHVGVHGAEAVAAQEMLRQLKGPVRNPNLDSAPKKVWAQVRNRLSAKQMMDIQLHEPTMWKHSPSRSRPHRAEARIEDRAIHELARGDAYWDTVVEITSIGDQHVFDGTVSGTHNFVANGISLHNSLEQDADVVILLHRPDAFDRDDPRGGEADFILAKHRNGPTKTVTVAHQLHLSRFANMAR
# [23] = biological target: T6, Protein RecA (Mycobacterium tuberculosis, UniProt P9WHJ3); test: Fluorescence Cell-Free Homogeneous Dose Retest to Identify Inhibitors of RecA-Intein Splicing Activity. [Related pubchem assays (depositor defined):AID2097, AID2223, AID489010, AID492950]; type: functional
# T6 sequence (P9WHJ3 whole entry): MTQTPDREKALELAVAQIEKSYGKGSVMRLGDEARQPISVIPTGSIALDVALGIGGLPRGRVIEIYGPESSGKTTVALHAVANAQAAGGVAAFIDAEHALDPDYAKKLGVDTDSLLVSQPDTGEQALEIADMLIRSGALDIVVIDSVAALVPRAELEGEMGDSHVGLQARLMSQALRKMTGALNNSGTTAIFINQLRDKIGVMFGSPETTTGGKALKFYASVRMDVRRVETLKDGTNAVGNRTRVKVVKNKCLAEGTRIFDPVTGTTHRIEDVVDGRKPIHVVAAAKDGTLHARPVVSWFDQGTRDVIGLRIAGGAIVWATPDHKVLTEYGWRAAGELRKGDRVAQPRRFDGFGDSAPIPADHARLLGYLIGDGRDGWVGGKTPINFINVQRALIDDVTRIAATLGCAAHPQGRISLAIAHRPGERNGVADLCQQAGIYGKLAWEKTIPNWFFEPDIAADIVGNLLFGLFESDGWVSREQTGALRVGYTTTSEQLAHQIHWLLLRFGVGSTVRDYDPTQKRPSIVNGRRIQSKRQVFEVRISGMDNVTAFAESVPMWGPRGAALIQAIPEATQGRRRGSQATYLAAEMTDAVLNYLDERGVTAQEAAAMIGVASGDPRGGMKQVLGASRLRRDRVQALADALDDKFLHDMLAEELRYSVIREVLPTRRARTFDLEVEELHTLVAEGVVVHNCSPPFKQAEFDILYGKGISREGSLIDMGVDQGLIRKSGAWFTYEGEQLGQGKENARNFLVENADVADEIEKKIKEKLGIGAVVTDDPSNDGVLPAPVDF
smiles,measurement,setting,value
COc1ccc(CN2C(=O)/C(=C/c3ccncc3)SC2=S)cc1,EC50,[1],16.9 µM (active)
same,EC50,[2],13.8 µM (active)
same,EC50,[3],> 75 µM (inconclusive)
same,EC50,[4],> 150 µM (inconclusive)
same,CC50,[5],18 µM (active)
same,CC50,[6],10.3 µM (active)
same,CC50,[7],7.52 µM (active)
same,IC50,[8],21.2 µM (active)
CC(C)c1ccc(NC(=S)NN(c2ccccc2)c2ccccc2)cc1,IC50,[9],0.793 µM (active)
CSC(=Nc1ccc(Br)cc1F)NS(=O)(=O)c1cccs1,EC50,[10],0.239 µM (active)
same,EC50,[11],18.6 µM (active)
same,EC50,[12],> 180 µM (inactive)
same,EC50,[13],> 150 µM (inactive)
CSc1ccc(COC(=O)c2cc([N+](=O)[O-])ccc2N2CCOCC2)cc1,EC50,[1],0.653 µM (active)
same,EC50,[2],0.652 µM (inconclusive)
same,IC50,[14],4.08 µM (active)
same,EC50,[3],0.385 µM (active)
same,EC50,[4],1.09 µM (active)
same,IC50,[15],> 80 µM (inactive)
same,IC50,[16],3.26 µM (active)
same,AC50,[17],0.619 µM (active)
Cc1oc2c(C)c3oc(=O)c(CC(=O)N[C@@H](CC(C)C)C(=O)N[C@@H](Cc4ccccc4)C(=O)O)c(C)c3cc2c1C,IC50,[18],72.6 µM (active)
same,IC50,[19],4.59 µM (active)
O=C1C2CC=CCC2C(=O)N1c1nc(-c2cccnc2)n[nH]1 (centres undefined),IC50,[20],> 100 µM (not active)
CCn1c(NC(=O)C2CCCCC2)nc2ccccc21,CC50,[5],31.7 µM (active)
same,CC50,[7],> 20 µM (active)
same,IC50,[8],1.33 µM (active)
S=C1SCN(Cc2cccnc2)CN1Cc1ccccc1,CC50,[5],15.2 µM (active)
same,CC50,[7],11 µM (active)
same,IC50,[8],18.2 µM (active)
N#CC1=C(N)Oc2[nH]nc(-c3ccccc3)c2C1c1cccnc1 (centres undefined),IC50,[21],60.4 µM (active)
same,AC50,[22],6.14 µM (active)
same,EC50,[23],1.79 µM (active)
Cc1ccc(N2C(=O)C(Cl)=C(N3CCN(C)CC3)C2=O)c(C)c1,IC50,[18],40.5 µM (active)
same,AC50,[22],8.01 µM (active)
same,EC50,[23],2.35 µM (active)
Cc1ccc(S(=O)(=O)NN2C(=O)/C(=C/c3cccc(F)c3)SC2=S)cc1,IC50,[18],27.2 µM (active)
CCN1CCN(C2=C(Cl)C(=O)N(c3ccnc(Cl)c3)C2=O)CC1,IC50,[20],> 50 µM (inconclusive)
O=C(Oc1cc2oc(=O)c3c(c2cc1Cl)CCCC3)c1cccs1,EC50,[10],1.12 µM (active)
same,EC50,[11],21.4 µM (active)
same,EC50,[12],> 180 µM (inactive)
same,EC50,[13],> 150 µM (inactive)
CCOc1ccccc1C(=O)Nc1ccc2nc(N3CCN(c4ncccn4)CC3)cc(C)c2c1,IC50,[15],> 80 µM (inactive)
Cc1ccccc1-n1cnnc1SCC(=O)N1CCN(c2ccccc2)CC1,IC50,[20],36.3 µM (active)
